Assay results taken from PMC9299836 (eLife, 2022).
“And” between values parts separate entries of the source, which are not always exact repeats. Equal entries are not always repeated.

What was measured:
[1] = target: mGluR2 (Mus musculus, UniProt Q14BI2, A548F); assay: Live-cell FRET, azi-CRD (cysteine-rich domain) sensor in HEK293T cells; settings: for Mean normalized FRET response, azi-CRD PAM DRC: glutamate + 0.5μM JNJ-42153605, maximal response normalized to 1mM glutamate
[2] = target: T1, mGluR2 (Mus musculus, UniProt Q14BI2); assay: Live-cell FRET, SNAP-m2 (VFT domain) inter-subunit sensor in HEK293T cells; settings: for SNAP-m2 FRET response (PAM DRC) / SNAP-m2 FRET response (PAM DRC), Mean: Glutamate + 0.5μM JNJ-42153605; for SNAP-m2 FRET response (PAM DRC): individual cells, normalized to 1mM glutamate;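 on all read-outs here: apparent FRET efficiency from whole-membrane ROIs of single cells, corrected for donor bleed-through and background, ΔFRET as treatment minus pretreatment signal, recorded at room temperature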
T1 sequence (Q14BI2 19-872): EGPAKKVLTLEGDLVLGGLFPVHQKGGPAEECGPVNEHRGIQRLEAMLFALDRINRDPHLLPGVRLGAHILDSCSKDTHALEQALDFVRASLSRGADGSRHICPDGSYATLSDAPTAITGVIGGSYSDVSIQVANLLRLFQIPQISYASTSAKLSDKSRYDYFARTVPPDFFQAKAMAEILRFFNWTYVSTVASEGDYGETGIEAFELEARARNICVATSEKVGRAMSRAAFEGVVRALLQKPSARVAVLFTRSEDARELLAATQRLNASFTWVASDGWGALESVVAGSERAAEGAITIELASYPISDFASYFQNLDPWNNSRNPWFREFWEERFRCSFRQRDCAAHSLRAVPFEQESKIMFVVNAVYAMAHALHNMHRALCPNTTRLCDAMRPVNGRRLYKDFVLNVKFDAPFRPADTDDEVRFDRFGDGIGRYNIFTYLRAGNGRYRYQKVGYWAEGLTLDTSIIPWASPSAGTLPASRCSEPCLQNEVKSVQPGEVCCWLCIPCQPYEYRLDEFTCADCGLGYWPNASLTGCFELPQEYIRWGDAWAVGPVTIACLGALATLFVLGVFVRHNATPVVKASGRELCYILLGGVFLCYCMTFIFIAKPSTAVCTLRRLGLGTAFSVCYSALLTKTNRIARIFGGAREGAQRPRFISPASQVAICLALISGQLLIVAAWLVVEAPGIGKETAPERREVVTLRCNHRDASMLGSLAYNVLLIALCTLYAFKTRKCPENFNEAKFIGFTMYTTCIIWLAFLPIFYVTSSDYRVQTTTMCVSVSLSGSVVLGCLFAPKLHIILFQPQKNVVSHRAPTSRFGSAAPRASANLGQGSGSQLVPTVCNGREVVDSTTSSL

[3] = target: mGluR2 (Mus musculus, UniProt Q14BI2, INS715F); assay: Live-cell FRET, azi-ECL2 (7TM domain, extracellular loop 2) sensor in HEK293T cells; settings: for Mean normalized azi-ECL2 FRET response: glutamate + 0.5μM modulator, maximal response normalized to 1mM glutamate;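 on all read-outs here: Cy3/Cy5 click-labeled sensor, whole-membrane ROIs per cell, apparent FRET after bleed-through correction, ΔFRET as treatment minus pre-treatment signal, at room temperature, at least three biological replicates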
Sequence of mGluR2 (Mus musculus, UniProt Q14BI2, INS715F) (Q14BI2 with tags, fused parts or gaps INS715F): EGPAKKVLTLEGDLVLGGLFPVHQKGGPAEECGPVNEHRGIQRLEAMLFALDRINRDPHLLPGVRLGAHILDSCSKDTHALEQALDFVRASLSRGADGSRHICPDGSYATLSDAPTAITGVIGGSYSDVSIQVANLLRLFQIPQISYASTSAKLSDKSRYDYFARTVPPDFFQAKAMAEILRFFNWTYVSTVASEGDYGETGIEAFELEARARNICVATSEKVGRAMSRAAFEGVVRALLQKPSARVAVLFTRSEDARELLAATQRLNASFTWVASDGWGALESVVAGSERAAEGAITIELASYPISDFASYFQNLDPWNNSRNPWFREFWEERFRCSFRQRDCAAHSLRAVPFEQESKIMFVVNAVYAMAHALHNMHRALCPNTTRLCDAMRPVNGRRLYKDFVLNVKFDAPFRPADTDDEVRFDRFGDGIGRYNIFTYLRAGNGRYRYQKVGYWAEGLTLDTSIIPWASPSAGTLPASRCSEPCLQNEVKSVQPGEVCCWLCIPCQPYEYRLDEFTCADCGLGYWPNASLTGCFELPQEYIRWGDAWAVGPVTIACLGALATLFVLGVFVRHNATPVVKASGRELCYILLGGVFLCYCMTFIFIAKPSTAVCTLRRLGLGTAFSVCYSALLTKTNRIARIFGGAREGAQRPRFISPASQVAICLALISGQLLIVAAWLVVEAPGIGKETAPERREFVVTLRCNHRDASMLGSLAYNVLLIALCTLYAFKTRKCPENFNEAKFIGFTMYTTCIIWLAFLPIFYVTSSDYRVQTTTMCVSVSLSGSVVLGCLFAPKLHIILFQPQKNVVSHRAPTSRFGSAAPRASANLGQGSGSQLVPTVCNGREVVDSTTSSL

[4] = target: T1, mGluR2; assay: Functional calcium imaging, SNAP-mGluR2 (no FLAG-tag) with chimeric G protein Gqo5 in HEK293T cells; type: cell-based; set-up: Full length mGluR2 construct with an amber codon (TAG) mutation of amino acid A548 (azi-CRD) or N-terminal SNAP-tag (SNAP-mGluR2); host or cells: HEK293T; settings: modulator alone; precluded analysis of glutamate potency and efficacy
[5] = 0.5μM JNJ-42153605, ([1 mM glutamate + modulator] - [1 mM glutamate]) × 100

Sequence of mGluR2 (Mus musculus, UniProt Q14BI2, A548F) (Q14BI2 19-872 A548F): as the sequence (Q14BI2 19-872) above, with A530F counted along it

In the case of `FC(F)(F)c1c(N2CCC(c3ccccc3)CC2)ccn2c(CC3CC3)nnc12` [JNJ-42153605, 3-cyclopropylmethyl-7-(4-phenylpiperidin-1-yl)-8-trifluoromethyl[1,2,4]triazolo[4,3-a]pyridine], the “azi-CRD - ΔEfficacy, Mean ΔEfficacy” value [1, 5] is reported as 43.306, the “azi-CRD - ΔEfficacy, individual cell responses” value ([1]; 0.5μM JNJ-42153605, single cells) is reported as 82.2727 and 42.4779 and 50.5102 and 41.4773 and 23.5294 and 12.5265 and 26.2467 and 67.4074 and the “Hill slope of glutamate titration” value ([1]; azi-CRD sensor, + 0.5 μM modulator) is reported as 0.84. For the same molecule, the “Live-cell FRET max response normalized to 1mM glutamate” value ([1]; azi-CRD sensor, Glutamate + 0.5μM JNJ-42153605, individual values (N=8)) was 1.235 and 1.125 and 1.262 and 1.674 and 1.823 and 1.425 and 1.5051 and 1.415, the “Mean max response (normalized max ΔFRET)” value ([1]; azi-CRD, 1 mM glutamate + 0.5 μM modulator, normalized to 1 mM glutamate) was 1.43 and the “Mean ΔPotency” value ([1]; azi-CRD, 0.5μM modulator, (([modulator + glutamate]EC50 – [glutamate] EC50)/[glutamate] EC50) × 100) was -59.6016. For the same molecule, the “ΔPotency, individual cell” value ([1]; azi-CRD, 0.5μM modulator, calculated from individual cell responses) was -88.5847 and -77.2559 and -86.9416 and -84.6067 and -90.4873 and -15.0698 and -44.7131 and -29.6276 and 9.8556, the “Mean normalized FRET response, azi-CRD PAM DRC” value (shortened to “Mean normalized FRET response”) ([1]; log[Glutamate] (M) -3) was 1.433 and the “Mean normalized FRET response” value ([1]; log[Glutamate] (M) -4.1549) was 1.38. For the same molecule, the “Mean normalized FRET response” value ([1]; log[Glutamate] (M) -4.52288) was 1.273, the “Mean normalized FRET response” value ([1]; log[Glutamate] (M) -5) was 1.071 and the “Mean normalized FRET response” value ([1]; log[Glutamate] (M) -5.39794) was 0.8185. The “Mean normalized FRET response” value ([1]; log[Glutamate] (M) -5.82391) was 0.5065, the “Mean normalized FRET response” value ([1]; log[Glutamate] (M) -6.52288) was 0.2306 and the “Mean normalized FRET response” value ([1]; log[Glutamate] (M) -7) was 0.112. For the same molecule, the “Mean normalized FRET response” value ([1]; log[Glutamate] (M) -7.30103) was 0.06166, the “Mean normalized FRET response” value ([1]; log[Glutamate] (M) -7.69897) was 0 and the “SNAP-m2 - ΔEfficacy, Mean ΔEfficacy” value [2, 5] was 1.081. The “SNAP-m2 FRET response (PAM DRC)” value ([2]; log[Glutamate] (M) -3) was -1.011, the “SNAP-m2 FRET response (PAM DRC), Mean” value ([2]; log[Glutamate] (M) -3) was -1.011 and the “SNAP-m2 FRET response (PAM DRC)” value ([2]; log[Glutamate] (M) -4.1549) was -1.026 and -1.036 and -0.9975 and -0.9514 and -0.995. For the same molecule, the “SNAP-m2 FRET response (PAM DRC), Mean” value ([2]; log[Glutamate] (M) -4.1549) was -1.001, the “SNAP-m2 FRET response (PAM DRC)” value ([2]; log[Glutamate] (M) -4.52288) was -1.0364 and -1.036 and -1.011 and -0.8324 and -0.8825 and the “SNAP-m2 FRET response (PAM DRC), Mean” value ([2]; log[Glutamate] (M) -4.52288) was -0.9596. For the same molecule, the “SNAP-m2 FRET response (PAM DRC)” value ([2]; log[Glutamate] (M) -5) was -1.011 (2×) and -0.9177 and -0.5203 and -0.5436, the “SNAP-m2 FRET response (PAM DRC), Mean” value ([2]; log[Glutamate] (M) -5) was -0.8006 and the “SNAP-m2 FRET response (PAM DRC)” value ([2]; log[Glutamate] (M) -5.39794) was -0.9084 and -0.9097 and -0.7581 and -0.2676 and -0.3028. For the same molecule, the “SNAP-m2 FRET response (PAM DRC), Mean” value ([2]; log[Glutamate] (M) -5.39794) was -0.6293, the “SNAP-m2 FRET response (PAM DRC)” value ([2]; log[Glutamate] (M) -5.82391) was -0.7293 and -0.6949 and -0.532 and -0.1338 and -0.1442 and the “SNAP-m2 FRET response (PAM DRC), Mean” value ([2]; log[Glutamate] (M) -5.82391) was -0.4469. For the same molecule, the “SNAP-m2 FRET response (PAM DRC)” value ([2]; log[Glutamate] (M) -6) was -0.07432 and -0.0721, the “SNAP-m2 FRET response (PAM DRC), Mean” value ([2]; log[Glutamate] (M) -6) was -0.07321 and the “SNAP-m2 FRET response (PAM DRC)” value ([2]; log[Glutamate] (M) -6.52288) was -0.2853 and -0.2653 and -0.1596 and 0 and -0.02884. For the same molecule, the “SNAP-m2 FRET response (PAM DRC), Mean” value ([2]; log[Glutamate] (M) -6.52288) was -0.1478, the “SNAP-m2 FRET response (PAM DRC)” value ([2]; log[Glutamate] (M) -7) was -0.1024 and -0.08845 and 0 (3×) and the “SNAP-m2 FRET response (PAM DRC), Mean” value ([2]; log[Glutamate] (M) -7) was -0.03816. The “SNAP-m2 FRET response (PAM DRC)” value ([2]; log[Glutamate] (M) -7.30103) was -0.03839 and 0 (4×), the “SNAP-m2 FRET response (PAM DRC), Mean” value ([2]; log[Glutamate] (M) -7.30103) was -0.00768 and the “SNAP-m2 FRET response (PAM DRC)” value ([2]; log[Glutamate] (M) -7.69897) was 0. For the same molecule, the “SNAP-m2 FRET response (PAM DRC), Mean” value ([2]; log[Glutamate] (M) -7.69897) was 0, the “Mean max response (normalized max ΔFRET)” value ([2]; SNAP-m2, 1 mM glutamate + 0.5 μM modulator, normalized to 1 mM glutamate) was 1.01 and the “Mean ΔPotency” value ([2]; SNAP-m2, 0.5μM modulator, (([modulator + glutamate]EC50 – [glutamate] EC50)/[glutamate] EC50) × 100) was -64.9475. For the same molecule, the “Mean ΔEfficacy” value ([2]; SNAP-m2, 0.5μM modulator, ([1 mM glutamate + modulator] - [1 mM glutamate]) × 100) was 1.081, the “Hill slope of glutamate titration” value ([2]; SNAP-m2 sensor, + 0.5 μM modulator) was “–0.95” and the “azi-ECL2 - ΔEfficacy, Mean ΔEfficacy” value [3, 5] was -1.362. For the same molecule, the “Mean ΔPotency” value ([3]; 0.5μM modulator, (([modulator + glutamate]EC50 – [glutamate] EC50)/[glutamate] EC50) × 100) was -56.3563, the “ΔPotency, individual cell responses” value ([3]; 0.5μM modulator, single cells, (([modulator + glutamate]EC50 – [glutamate] EC50)/[glutamate] EC50) × 100) was -56.3361 and -69.1679 and -73.0287 and -52.3819 and -40.5992 and -58.985 and -50.7357 and -45.7659 and -53.2747 and -65.0568 and -56.2788 and -59.6269 and -60.7335 and -44.1256 and -58.5158 and -54.4905 and -58.9548 and the “ΔEfficacy, individual cell responses” value ([3]; 0.5μM modulator, single cells, ([1 mM glutamate + modulator] - [1 mM glutamate]) × 100) was -2.941 and 0.7843 and -9.091 and 0.4875 and -2.828 and 1.987 and -3.4754 and -3.284 and -3.415 and -12.5737 and -5.278 and 16.4947 and 5.4247. For the same molecule, the “Change in glutamate efficacy by FRET signal at ECL2” value ([3]; azi-ECL2, 0.5 μM modulator) was “no change in efficacy”, the “Mean max response (normalized max ΔFRET)” value ([3]; azi-ECL2, 1 mM glutamate + 0.5 μM modulator, normalized to 1 mM glutamate) was 0.99 and the “Hill slope of glutamate titration” value ([3]; azi-ECL2 sensor, + 0.5 μM modulator) was 0.97. The “Mean normalized azi-ECL2 FRET response” value ([3]; log[Glutamate] (M) -3) was 0.9864, the “Mean normalized azi-ECL2 FRET response” value ([3]; log[Glutamate] (M) -4.1549) was 0.9409 and the “Mean normalized azi-ECL2 FRET response” value ([3]; log[Glutamate] (M) -4.52288) was 0.8615. The “Mean normalized azi-ECL2 FRET response” value ([3]; log[Glutamate] (M) -5) was 0.7669, the “Mean normalized azi-ECL2 FRET response” value ([3]; log[Glutamate] (M) -5.39794) was 0.6334 and the “Mean normalized azi-ECL2 FRET response” value ([3]; log[Glutamate] (M) -5.82391) was 0.3885. The “Mean normalized azi-ECL2 FRET response” value ([3]; log[Glutamate] (M) -6.52288) was 0.08595, the “Mean normalized azi-ECL2 FRET response” value ([3]; log[Glutamate] (M) -7) was 0.01271 and the “Mean normalized azi-ECL2 FRET response” value ([3]; log[Glutamate] (M) -7.30103) was 0. The “Mean normalized azi-ECL2 FRET response” value ([3]; log[Glutamate] (M) -7.69897) was 0 and the “Effect of modulator itself on intracellular calcium flux” value [4] was “Direct activation of mGluR2”.
